Test results reported in PMC12846068, “Insights into Transport Function of the Murine Organic Anion-Transporting Polypeptide OATP1B2 by Comparison with Its Rat and Human Orthologues” (Toxics, 2025).
“Also recorded” adds a separate entry of the source. Like-named read-outs stand apart in the source and are kept apart here.

Experiments:
Type in all cases: cell-based
mOATP1B2 = target: T1, mOATP1B2 (Mus musculus, UniProt Q9JJL3); test: cis-inhibition of mOATP1B2-mediated E1S or TCA uptake in HEK293 cells
T1 construct: The full-length mOATP1B2 and rOATP1B2 consist of 689 and 678 amino acids
T1 sequence (Q9JJL3 1-689): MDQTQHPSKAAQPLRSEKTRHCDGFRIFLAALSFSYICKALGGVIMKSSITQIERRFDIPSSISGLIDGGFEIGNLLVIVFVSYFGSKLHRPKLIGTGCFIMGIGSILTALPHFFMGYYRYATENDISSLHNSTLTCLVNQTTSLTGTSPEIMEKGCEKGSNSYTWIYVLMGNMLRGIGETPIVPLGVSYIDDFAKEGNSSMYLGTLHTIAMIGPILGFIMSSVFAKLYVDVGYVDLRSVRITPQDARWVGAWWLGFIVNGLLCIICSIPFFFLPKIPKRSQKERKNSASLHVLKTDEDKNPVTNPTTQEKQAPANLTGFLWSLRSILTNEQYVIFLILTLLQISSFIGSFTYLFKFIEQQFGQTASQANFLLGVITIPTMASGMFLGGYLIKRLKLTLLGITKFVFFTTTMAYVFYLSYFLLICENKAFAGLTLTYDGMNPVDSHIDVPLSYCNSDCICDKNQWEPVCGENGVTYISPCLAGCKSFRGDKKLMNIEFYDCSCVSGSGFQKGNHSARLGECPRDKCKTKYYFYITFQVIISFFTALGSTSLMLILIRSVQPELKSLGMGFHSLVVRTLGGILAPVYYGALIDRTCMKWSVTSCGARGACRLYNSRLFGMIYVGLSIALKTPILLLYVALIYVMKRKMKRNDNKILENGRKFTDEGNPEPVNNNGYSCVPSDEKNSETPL
Method: Inhibition experiments with mOATP1B2 and rOATP2B1 were carried out in triplicate as cis-inhibition. […] Inhibitory effects were calculated as a percentage of the net-uptake rates. […] The means ± average deviation (AD, for N = 2) were calculated from two experiments on two different days. The significance as a p-value was calculated using Student's t-test in Microsoft Excel.

rOATP1B2 = target: T2, rOATP1B2 (Rattus norvegicus, UniProt Q9QZX8); test: cis-inhibition of rOATP1B2-mediated E1S or TCA uptake in HEK293 cells
T2 construct: The full-length mOATP1B2 and rOATP1B2 consist of 689 and 678 amino acids
T2 sequence (Q9QZX8 1-687): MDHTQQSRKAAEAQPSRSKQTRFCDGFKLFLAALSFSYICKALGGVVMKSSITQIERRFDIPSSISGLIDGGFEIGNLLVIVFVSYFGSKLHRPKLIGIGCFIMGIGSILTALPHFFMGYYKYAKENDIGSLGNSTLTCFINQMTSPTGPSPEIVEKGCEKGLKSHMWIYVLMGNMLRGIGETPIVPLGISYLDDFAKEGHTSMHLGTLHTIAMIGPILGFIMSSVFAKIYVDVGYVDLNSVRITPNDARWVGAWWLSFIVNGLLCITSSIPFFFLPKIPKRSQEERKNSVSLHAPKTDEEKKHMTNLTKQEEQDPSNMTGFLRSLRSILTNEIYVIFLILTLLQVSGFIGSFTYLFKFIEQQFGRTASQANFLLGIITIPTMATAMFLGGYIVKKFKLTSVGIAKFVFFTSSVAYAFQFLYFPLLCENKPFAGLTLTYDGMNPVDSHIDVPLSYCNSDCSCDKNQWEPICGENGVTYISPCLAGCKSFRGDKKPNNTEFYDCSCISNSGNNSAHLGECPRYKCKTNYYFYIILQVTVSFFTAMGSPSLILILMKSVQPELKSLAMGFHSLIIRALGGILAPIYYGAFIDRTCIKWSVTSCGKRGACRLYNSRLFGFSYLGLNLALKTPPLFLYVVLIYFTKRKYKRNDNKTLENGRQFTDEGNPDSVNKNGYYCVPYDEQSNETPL

hOATP1B1 = target: T3, hOATP1B1 (Homo sapiens, UniProt Q9Y6L6); test: cis-inhibition of hOATP1B1-mediated E1S uptake in HEK293 cells; design: expressed in transfected cells; host or cells: HEK-293, stably transfected; settings: 10 µM drug; for Inhibitory effect on hOATP1B1-mediated E1S uptake: 0.01 µM [3H]-E1S, 1 min; for inhibition at 1 min, 10 µM: human, HEK293 cells expressing hOATP1B1, probe 0.01 µM [3H]-E1S, read-out: Inhibitory effect on hOATP1B1-mediated E1S uptake
T3 sequence (Q9Y6L6 1-691): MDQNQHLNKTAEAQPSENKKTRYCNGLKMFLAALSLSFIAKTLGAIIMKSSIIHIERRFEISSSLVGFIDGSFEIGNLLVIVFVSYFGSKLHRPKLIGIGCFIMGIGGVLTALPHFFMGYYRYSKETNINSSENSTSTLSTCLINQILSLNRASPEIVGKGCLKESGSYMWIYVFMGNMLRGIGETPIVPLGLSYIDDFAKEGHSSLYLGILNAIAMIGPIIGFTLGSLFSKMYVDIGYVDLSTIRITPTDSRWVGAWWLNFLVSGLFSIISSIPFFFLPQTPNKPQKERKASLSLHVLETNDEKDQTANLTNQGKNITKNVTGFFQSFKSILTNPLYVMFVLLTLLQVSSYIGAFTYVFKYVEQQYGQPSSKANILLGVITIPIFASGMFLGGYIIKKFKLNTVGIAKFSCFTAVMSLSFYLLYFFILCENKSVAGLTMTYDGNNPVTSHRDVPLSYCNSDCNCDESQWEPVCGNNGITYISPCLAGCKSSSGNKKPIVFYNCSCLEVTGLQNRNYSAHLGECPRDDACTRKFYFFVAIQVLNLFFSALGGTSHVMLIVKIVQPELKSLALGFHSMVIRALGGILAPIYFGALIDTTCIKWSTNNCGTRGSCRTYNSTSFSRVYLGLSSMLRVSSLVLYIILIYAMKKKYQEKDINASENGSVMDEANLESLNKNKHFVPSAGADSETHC
Method: Inhibitory effects were calculated as a percentage of the net-uptake rates.
The means ± average deviation (AD, for N = 2) were calculated from two experiments on two different days. The significance as a p-value was calculated using Student’s t-test in Microsoft Excel.

[1] = HEK293, 10 µM drug, 1 µM [3H]-E1S, 1 min, read-out: Inhibitory effect on mOATP1B2-mediated E1S uptake
[2] = HEK293, read-out: Inhibitory effect on mOATP1B2-mediated TCA uptake, 10 µM drug, 1 µM [3H]-TCA, 1 min
[3] = HEK293, read-out: Inhibitory effect on mOATP1B2-mediated substrate uptake (summary over E1S and TCA), 10 µM drug, substrates E1S and TCA not separated
[4] = HEK293, 10 µM drug, 1 µM [3H]-E1S, 1 min, read-out: Inhibitory effect on rOATP1B2-mediated E1S uptake
[5] = HEK293, read-out: Inhibitory effect on rOATP1B2-mediated TCA uptake, 10 µM drug, 1 µM [3H]-TCA, 1 min
[6] = HEK293, read-out: Inhibitory effect on rOATP1B2-mediated substrate uptake (summary over E1S and TCA), 10 µM drug, substrates E1S and TCA not separated
[7] = 10 µM drug, substrates E1S and TCA not separated

Compound	inhibition at 10 µM (mOATP1B2; [1]) [%]	inhibition at 10 µM (mOATP1B2; [2]) [%]	inhibition at 10 µM (mOATP1B2; [3]) [%]	inhibition at 10 µM (rOATP1B2; [4]) [%]	inhibition at 10 µM (rOATP1B2; [5]) [%]	inhibition at 10 µM (rOATP1B2; [6]) [%]	Inhibitory effect on hOATP1B1-mediated E1S uptake (hOATP1B1)	Inhibitory effect on hOATP1B1-mediated E1S uptake (hOATP1B1; listed as amprenavir)	IC50 (mOATP1B2; 1 µM [3H]-E1S, 1 min, read-out: IC50, mOATP1B2-mediated E1S uptake) [µM]	difference in inhibition between mOATP1B2 and rOATP1B2 (mOATP1B2; 10 µM drug) [%]	IC50 (mOATP1B2; IC50, mOATP1B2-mediated TCA uptake, 1 µM [3H]-TCA, 1 min) [µM]	IC50 (rOATP1B2; 1 µM [3H]-E1S, 1 min, read-out: IC50, rOATP1B2-mediated E1S uptake) [µM]	fold difference of IC50 between mOATP1B2 and rOATP1B2 (stronger inhibition of rOATP1B2) (rOATP1B2; E1S uptake) [fold]	IC50 (rOATP1B2; IC50, rOATP1B2-mediated TCA uptake, 1 µM [3H]-TCA, 1 min) [µM]	fold difference of IC50 between mOATP1B2 and rOATP1B2 (rOATP1B2; TCA uptake) [fold]	inhibition at 1 min, 10 µM (hOATP1B1) [%]	Inhibitory effect on mOATP1B2-mediated substrate uptake (summary over E1S and TCA) (mOATP1B2; [7])	Inhibitory effect on rOATP1B2-mediated substrate uptake (summary over E1S and TCA) (rOATP1B2; [7])	Inhibitory effect on hOATP1B1-mediated E1S uptake (hOATP1B1; listed as ketoconazole)
CC(C)CN(C[C@@H](O)[C@H](Cc1ccccc1)NC(=O)O[C@H]1CCOC1)S(=O)(=O)c1ccc(N)cc1 [Amprenavir, amprenavir]	12	32	< 50	21	27	< 50	−1%	less than 50%	–	–	–	–	–	–	–	–	–	–	–
CO[C@H]1/C=C/O[C@@]2(C)Oc3c(C)c(O)c4c(O)c(c(/C=N/N5CCN(C)CC5)c(O)c4c3C2=O)NC(=O)/C(C)=C\C=C\[C@H](C)[C@H](O)[C@@H](C)[C@@H](O)[C@@H](C)[C@H](OC(C)=O)[C@@H]1C [Rifampicin, rifampicin]	44	53	≥ 50	93	83	–	–	–	9.6	> 30	7.7	1.1	8.7	2.4	3.2	59	–	–	–
CCCCC1(CCCC)CN(c2ccccc2)c2cc(SC)c(OCC(=O)N[C@@H](C(=O)N[C@@H](CC)C(=O)O)c3ccc(O)cc3)cc2S(=O)(=O)N1 [Odevixibat, odevixibat]	69	54	54 to 82	82	74	54 to 82	completely inhibited; also recorded: complete inhibition	–	–	–	–	–	–	–	–	96	–	–	–
CC(C)c1nc(N(C)S(C)(=O)=O)nc(-c2ccc(F)cc2)c1/C=C/[C@@H](O)C[C@@H](O)CC(=O)O [Rosuvastatin, rosuvastatin]	50	52	≥ 50	73	69	≥ 50	–	–	–	–	–	–	–	–	–	16	–	–	–
Clc1ccccc1C(c1ccccc1)(c1ccccc1)n1ccnc1 [Clotrimazole, clotrimazole]	6	-2	–	-10	-10	–	did not inhibit	–	–	–	–	–	–	–	–	10	no inhibitory properties; also recorded: did not inhibit	no inhibitory properties; also recorded: did not inhibit	–
CC(=O)N1CCN(c2ccc(OCC3COC(Cn4ccnc4)(c4ccc(Cl)cc4Cl)O3)cc2)CC1 (stereo not shown) [Ketoconazole, ketoconazole]	41	29	< 50	34	19	< 50	25%	–	–	–	–	–	–	–	–	–	–	–	less than 50%
